Assay results: patent US7932270B2 (Cytokinetics, Inc., priority 2006, dated 2011)

Biological target: T1, chicken gizzard smooth muscle myosin subfragment-1 chemically crosslinked to cardiac or skeletal actin (Gallus gallus, UniProt P10587)
T1 construct: chicken gizzard smooth muscle myosin subfragment-1; from tissue; host or cells: chicken gizzard
Test: Smooth muscle myosin ATPase dose response assay (pyruvate kinase/horseradish peroxidase/pyruvate oxidase-coupled, amplex red fluorescence)
Format: biochemical
Details: read-out: IC50 Arithmetic Mean
Summary of the method: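 Readout is amplex red signal from coupled ATPase of actin-crosslinked gizzard myosin S1 (0.15 mM ATP, 12 mM K-PIPES, pH 7.00). IC50 is the half-maximal activity point of a four-parameter Hill fit.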

T1 sequence (P02607 2-151): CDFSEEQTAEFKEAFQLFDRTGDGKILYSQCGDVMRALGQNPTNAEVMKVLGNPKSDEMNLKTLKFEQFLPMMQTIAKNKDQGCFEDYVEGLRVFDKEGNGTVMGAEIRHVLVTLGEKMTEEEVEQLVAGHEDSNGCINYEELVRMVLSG
T1 sequence (P10587 84-789): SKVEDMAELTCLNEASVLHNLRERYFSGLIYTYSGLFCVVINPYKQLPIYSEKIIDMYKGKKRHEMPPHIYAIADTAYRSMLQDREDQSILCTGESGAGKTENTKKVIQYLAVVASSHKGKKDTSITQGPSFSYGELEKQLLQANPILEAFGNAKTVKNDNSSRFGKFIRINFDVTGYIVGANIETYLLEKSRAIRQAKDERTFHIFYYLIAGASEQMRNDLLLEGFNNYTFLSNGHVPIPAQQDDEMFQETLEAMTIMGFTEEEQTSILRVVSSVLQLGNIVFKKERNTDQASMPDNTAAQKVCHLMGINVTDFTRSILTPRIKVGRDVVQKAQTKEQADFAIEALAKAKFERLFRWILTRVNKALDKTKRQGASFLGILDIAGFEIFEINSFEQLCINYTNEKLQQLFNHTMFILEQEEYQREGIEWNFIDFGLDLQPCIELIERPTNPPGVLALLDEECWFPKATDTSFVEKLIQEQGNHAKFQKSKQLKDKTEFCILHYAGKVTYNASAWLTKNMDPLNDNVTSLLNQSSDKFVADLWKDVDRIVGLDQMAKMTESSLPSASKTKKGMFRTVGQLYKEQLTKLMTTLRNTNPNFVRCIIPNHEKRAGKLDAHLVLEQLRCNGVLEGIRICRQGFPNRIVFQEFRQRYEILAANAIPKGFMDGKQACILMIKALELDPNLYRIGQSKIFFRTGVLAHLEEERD

Row | IC50 [nM] | Structure (SMILES)
1 | 30300 | CN(C)C(=O)CNC(=O)c1ccc(-c2ccccc2)nc1NCCc1ccccc1 [N,N-dimethyl-2-({6-phenyl-2-[(2-phenylethyl)amino](3-pyridyl)}carbonylamino)acetamide]
2 | 4790 | N#Cc1ccccc1-c1ccc(C(=O)NCC2CCN(CCCN)C2)c(NCCc2cccc(F)c2)n1 (stereo not shown) [N-{[1-(3-aminopropyl)pyrrolidin-3-yl]methyl}(6-(2-cyanophenyl)-2-{[2-(3-fluorophenyl)ethyl]amino}(3-pyridyl))carboxamide]
3 | 323 | N#Cc1ccccc1-c1ccc(C(=O)NCc2cncc(CN)c2)c(NCCc2cccc(F)c2)n1 [N-{[5-(aminomethyl)(3-pyridyl)]methyl}(6-(2-cyanophenyl)-2-{[2-(3-fluorophenyl)ethyl]amino}(3-pyridyl))carboxamide]
4 | 86 | N#Cc1cccc(F)c1-c1ccc(C(=O)NCc2cccnc2)c(NCCc2cccc(F)c2)n1 [(6-(2-cyano-6-fluorophenyl)-2-{[2-(3-fluorophenyl)ethyl]amino}(3-pyridyl))-N-(3-pyridylmethyl)carboxamide]
5 | 40 | N#Cc1ccccc1-c1nc(NCCc2cccc(F)c2)c(C(=O)NC[C@H]2CCCN2C(=O)CN)cc1F [N-{[(2R)-1-(2-aminoacetyl)pyrrolidin-2-yl]methyl}(6-(2-cyanophenyl)-5-fluoro-2-{[2-(3-fluorophenyl)ethyl]amino}(3-pyridyl))carboxamide]
6 | 59 | N#Cc1ccccc1-c1ccc(C(=O)NC[C@H]2CCCN2C(=O)[C@@H](N)CN)c(NCCc2cccc(F)c2)n1 [N-{[(2R)-1-((2S)-2,3-diaminopropanoyl)pyrrolidin-2-yl]methyl}(6-(2-cyanophenyl)-2-{[2-(3-fluorophenyl)ethyl]amino}(3-pyridyl))carboxamide]
7 | 156 | Cn1cc(-c2ccc(C(=O)NC[C@H]3CCC(=O)N3)c(NCCc3cccc(F)c3)n2)cn1 [N-[((2R)-5-oxopyrrolidin-2-yl)methyl](2-{[2-(3-fluorophenyl)ethyl]amino}-6-(1-methylpyrazol-4-yl)(3-pyridyl))carboxamide]
8 | 4440 | O=C(NCc1cccnc1)c1ccc(-c2ccccc2Cl)nc1NCCc1ccccn1 [{6-(2-chlorophenyl)-2-[(2-(2-pyridyl)ethyl)amino](3-pyridyl)}-N-(3-pyridylmethyl)carboxamide]
9 | 26 | N#Cc1ccccc1-c1ccc(C(=O)NCc2ccc(N)nc2)c(NCCc2cccc(F)c2)n1 [N-[(6-amino(3-pyridyl))methyl](6-(2-cyanophenyl)-2-{[2-(3-fluorophenyl)ethyl]amino}(3-pyridyl))carboxamide]
10 | 204 | C[C@H](CNC(=O)c1ccc(-c2ccccc2C#N)nc1NCCc1cccc(F)c1)NC(=O)CCCN
11 | 415 | CC(O)c1ccc(-c2ccc(C(=O)NCc3cccnc3)c(NCCc3cccc(F)c3)n2)s1 (stereo not shown) [(2-{[2-(3-fluorophenyl)ethyl]amino}-6-[5-(hydroxyethyl)(2-thienyl)](3-pyridyl))-N-(3-pyridylmethyl)carboxamide]
12 | 4060 | Cc1cscc1-c1ccc(C(=O)NCc2cccnc2)c(NCCc2ccccn2)n1 [{6-(4-methyl(3-thienyl))-2-[(2-(2-pyridyl)ethyl)amino](3-pyridyl)}-N-(3-pyridylmethyl)carboxamide]
13 | 21 | Cn1cc(-c2nc(NCCc3cccc(F)c3)c(C(=O)NCc3cccnc3)cc2C#N)cn1 [(5-cyano-2-{[2-(3-fluorophenyl)ethyl]amino}-6-(1-methylpyrazol-4-yl)(3-pyridyl))-N-(3-pyridylmethyl)carboxamide]
14 | 5400 | N#Cc1ccccc1-c1ccc(C(=O)N[C@@H](CCCN)C(N)=O)c(NCCc2cccc(F)c2)n1 [N-((1S)-4-amino-1-carbamoylbutyl)(6-(2-cyanophenyl)-2-{[2-(3-fluorophenyl)ethyl]amino}(3-pyridyl))carboxamide]
15 | 512 | O=C(NCc1cccnc1)c1ccc(-c2ccccc2)nc1NCCc1ccccn1 [{6-phenyl-2-[(2-(2-pyridyl)ethyl)amino](3-pyridyl)}-N-(3-pyridylmethyl)carboxamide]
16 | 151 | O=C(NCc1cccnc1)c1ccc(-c2ccccc2)nc1NCCc1ccccc1 [{6-phenyl-2-[(2-phenylethyl)amino](3-pyridyl)}-N-(3-pyridylmethyl)carboxamide]

The remaining lines, values behind:

Row | Structure (SMILES) | IC50 [nM]
17 | N#Cc1ccccc1-c1ccc(C(=O)NC2CCC(C(N)=O)C2)c(NCCc2cccc(F)c2)n1 (stereo not shown) [3-[(6-(2-cyanophenyl)-2-{[2-(3-fluorophenyl)ethyl]amino}-3-pyridyl)carbonylamino]cyclopentanecarboxamide] | 11600
18 | CNC(=O)CNC(=O)c1ccc(-c2ccccc2)nc1NCCc1ccccc1 [N-methyl-2-({6-phenyl-2-[(2-phenylethyl)amino](3-pyridyl)}carbonylamino)acetamide] | 486
19 | Cn1cnc(CCNc2nc(-c3ccccc3)ccc2C(=O)NCc2cccnc2)c1 [(2-{[2-(1-methylimidazol-4-yl)ethyl]amino}-6-phenyl(3-pyridyl))-N-(3-pyridylmethyl)carboxamide] | 32200
20 | O=C(NC[C@H]1CCCN1C(=O)CO)c1ccc(-c2cn[nH]c2)nc1NCCc1cccc(F)c1 [N-{[(2R)-1-(2-hydroxyacetyl)pyrrolidin-2-yl]methyl}(2-{[2-(3-fluorophenyl)ethyl]amino}-6-pyrazol-4-yl(3-pyridyl))carboxamide] | 1190
21 | CC(C)(C)OC(=O)N1CCC[C@@H]1CNC(=O)c1ccc(-c2cn[nH]c2)nc1NCCc1cccc(F)c1 [tert-butyl (2R)-2-{[(2-{[2-(3-fluorophenyl)ethyl]amino}-6-pyrazol-4-yl(3-pyridyl))carbonylamino]methyl}pyrrolidinecarboxylate] | 3170
22 | CC(C)(C)OC(=O)NCCN1CCC[C@H](NC(=O)c2ccc(-c3ccccc3C#N)nc2NCCc2cccc(F)c2)C1=O (stereo in doubt) [N-(1-{2-[(tert-butoxy)carbonylamino]ethyl}-2-oxo(3-piperidyl))(6-(2-cyanophenyl)-2-{[2-(3-fluorophenyl)ethyl]amino}(3-pyridyl))carboxamide] | 15300
23 | CN1CCN(C(=O)CCN)[C@@H](CNC(=O)c2ccc(-c3ccccc3C#N)nc2NCCc2cccc(F)c2)C1 [N-{[(2S)-1-(3-aminopropanoyl)-4-methylpiperazin-2-yl]methyl}(6-(2-cyanophenyl)-2-{[2-(3-fluorophenyl)ethyl]amino}(3-pyridyl))carboxamide] | 2390
24 | N[C@@H](CO)CNC(=O)c1cc(F)c(-c2cn[nH]c2)nc1NCCc1cccc(F)c1 [N-((2R)-2-amino-3-hydroxypropyl)(5-fluoro-2-{[2-(3-fluorophenyl)ethyl]amino}-6-pyrazol-4-yl(3-pyridyl))carboxamide] | 1820
25 | Cn1cc(-c2nc(NCCc3cccc(F)c3)c(C(=O)NC[C@H]3CCCN3C(=O)CCCN)cc2C#N)cn1 [N-{[(2R)-1-(4-aminobutanoyl)pyrrolidin-2-yl]methyl}(5-cyano-2-{[2-(3-fluorophenyl)ethyl]amino}-6-(1-methylpyrazol-4-yl)(3-pyridyl))carboxamide] | 211
26 | C[C@H](N)C(=O)N1CCCC1CNC(=O)c1cc(F)c(-c2cc[nH]n2)nc1NCCc1cccc(F)c1 (stereo partly drawn) [N-{[(2R)-1-((2S)-2-aminopropanoyl)pyrrolidin-2-yl]methyl}(5-fluoro-2-{[2-(3-fluorophenyl)ethyl]amino}-6-pyrazol-3-yl(3-pyridyl))carboxamide] | 314
27 | N#Cc1ccccc1-c1ccc(C(=O)NCCN2CCC[C@H](N)C2=O)c(NCCc2cccc(F)c2)n1 (stereo in doubt) [N-[2-(3-amino-2-oxopiperidyl)ethyl](6-(2-cyanophenyl)-2-{[2-(3-fluorophenyl)ethyl]amino}(3-pyridyl))carboxamide] | 2950
28 | Cc1cc(C(=O)NC[C@H]2CCCN2C(=O)CCCN)c(NCCc2cccc(F)c2)nc1-c1cnn(C)c1 [N-{[(2R)-1-(4-aminobutanoyl)pyrrolidin-2-yl]methyl}(2-{[2-(3-fluorophenyl)ethyl]amino}-5-methyl-6-(1-methylpyrazol-4-yl)(3-pyridyl))carboxamide] | 381
29 | CNC(=O)[C@H](CNC(=O)OC(C)(C)C)NC(=O)c1ccc(-c2ccccc2C#N)nc1NCCc1cccc(F)c1 [(2S)-3-[(tert-butoxy)carbonylamino]-2-[(6-(2-cyanophenyl)-2-{[2-(3-fluorophenyl)ethyl]amino}(3-pyridyl))carbonylamino]-N-methylpropanamide] | 43600
30 | C[C@H](N)C(=O)N1CCC[C@@H]1CNC(=O)c1cc(F)c(-c2cnn(C)c2)nc1NCCc1cccc(F)c1 [N-{[(2R)-1-((2S)-2-aminopropanoyl)pyrrolidin-2-yl]methyl}(5-fluoro-2-{[2-(3-fluorophenyl)ethyl]amino}-6-(1-methylpyrazol-4-yl)(3-pyridyl))carboxamide] | 99
31 | N#Cc1ccccc1-c1ccc(C(=O)NCc2cccnc2CNC(=O)c2ccc(-c3ccccc3C#N)nc2NCCc2cccc(F)c2)c(NCCc2cccc(F)c2)n1 [(6-(2-cyanophenyl)-2-{[2-(3-fluorophenyl)ethyl]amino}(3-pyridyl))-N-[(3-{[(6-(2-cyanophenyl)-2-{[2-(3-fluorophenyl)ethyl]amino}(3-pyridyl))carbonylamino]methyl}(2-pyridyl))methyl]carboxamide] | 2440
32 | O=C(NCc1cccnc1)c1ccc(-c2ccccc2)nc1NCCC1OCCO1 [{2-[(2-(1,3-dioxolan-2-yl)ethyl)amino]-6-phenyl(3-pyridyl)}-N-(3-pyridylmethyl)carboxamide] | 7120
33 | O=C(NCc1cccnc1)c1ccc(-c2c(F)cccc2Cl)nc1NCCc1cccc(F)c1 [(6-(2-chloro-6-fluorophenyl)-2-{[2-(3-fluorophenyl)ethyl]amino}(3-pyridyl))-N-(3-pyridylmethyl)carboxamide] | 540
34 | Cn1cc(-c2ccc(C(=O)NC[C@H]3CCCN3C(=O)CCCNC(=O)OC(C)(C)C)c(NCCc3cccc(F)c3)n2)cn1 [N-[((2R)-1-{4-[(tert-butoxy)carbonylamino]butanoyl}pyrrolidin-2-yl)methyl](2-{[2-(3-fluorophenyl)ethyl]amino}-6-(1-methylpyrazol-4-yl)(3-pyridyl))carboxamide] | 3650
